Numbers after ± are expanded uncertainties.
Assay: mn = molality of the nth substance listed, in mol/kg
Conditions: 75 kPa, Liquid, Buoyancy - hydrostatic balance with magnetic suspension - one sinker

CCC(N)=O [propanamide] + O
Conditions | mass density [kg/m3]
275.66 K, m1 = 0.09705 | 1000.26 ± 0.32
275.66 K, m1 = 0.18 | 1000.53 ± 0.32
275.66 K, m1 = 0.2822 | 1000.89 ± 0.32
275.66 K, m1 = 0.3869 | 1001.24 ± 0.32
275.66 K, m1 = 0.4939 | 1001.62 ± 0.33
275.66 K, m1 = 0.5946 | 1002 ± 0.33
275.66 K, m1 = 0.702 | 1002.4 ± 0.33
275.66 K, m1 = 0.8002 | 1002.77 ± 0.33
276.14 K, m1 = 0.1006 | 1000.29 ± 0.32
276.14 K, m1 = 0.1957 | 1000.6 ± 0.32
276.14 K, m1 = 0.2937 | 1000.93 ± 0.32
276.14 K, m1 = 0.3933 | 1001.26 ± 0.32
276.14 K, m1 = 0.4953 | 1001.62 ± 0.33
276.14 K, m1 = 0.59 | 1001.96 ± 0.33
276.14 K, m1 = 0.7073 | 1002.39 ± 0.33
276.14 K, m1 = 0.799 | 1002.72 ± 0.33
276.61 K, m1 = 0.09735 | 1000.27 ± 0.32
276.61 K, m1 = 0.2018 | 1000.61 ± 0.32
276.61 K, m1 = 0.3001 | 1000.94 ± 0.32
276.61 K, m1 = 0.3875 | 1001.23 ± 0.32
276.61 K, m1 = 0.4999 | 1001.62 ± 0.33
276.61 K, m1 = 0.5929 | 1001.94 ± 0.33
276.61 K, m1 = 0.702 | 1002.32 ± 0.33
276.61 K, m1 = 0.7924 | 1002.63 ± 0.33
277.15 K, m1 = 0.1006 | 1000.29 ± 0.32
277.15 K, m1 = 0.1957 | 1000.61 ± 0.32
277.15 K, m1 = 0.2937 | 1000.93 ± 0.32
277.15 K, m1 = 0.3933 | 1001.27 ± 0.32
277.15 K, m1 = 0.4953 | 1001.61 ± 0.33
277.15 K, m1 = 0.59 | 1001.93 ± 0.33
277.15 K, m1 = 0.7073 | 1002.35 ± 0.33
277.15 K, m1 = 0.799 | 1002.67 ± 0.33
277.61 K, m1 = 0.09735 | 1000.28 ± 0.32
277.61 K, m1 = 0.2018 | 1000.61 ± 0.32
277.61 K, m1 = 0.3001 | 1000.92 ± 0.32
277.61 K, m1 = 0.3875 | 1001.21 ± 0.32
277.61 K, m1 = 0.4999 | 1001.59 ± 0.33
277.61 K, m1 = 0.5929 | 1001.9 ± 0.33
277.61 K, m1 = 0.694 | 1002.23 ± 0.33
277.61 K, m1 = 0.8027 | 1002.59 ± 0.33
278.12 K, m1 = 0.09735 | 1000.28 ± 0.32
278.12 K, m1 = 0.2018 | 1000.62 ± 0.32
278.12 K, m1 = 0.297 | 1000.92 ± 0.32
278.12 K, m1 = 0.4495 | 1001.43 ± 0.32
278.12 K, m1 = 0.4911 | 1001.58 ± 0.33
278.12 K, m1 = 0.5697 | 1001.85 ± 0.33
278.12 K, m1 = 0.7087 | 1002.34 ± 0.33
278.12 K, m1 = 0.8713 | 1002.91 ± 0.33
278.68 K, m1 = 0.09705 | 1000.26 ± 0.32
278.68 K, m1 = 0.18 | 1000.51 ± 0.32
278.68 K, m1 = 0.2822 | 1000.84 ± 0.32
278.68 K, m1 = 0.3869 | 1001.18 ± 0.32
278.68 K, m1 = 0.4939 | 1001.53 ± 0.33
278.68 K, m1 = 0.5946 | 1001.87 ± 0.33
278.68 K, m1 = 0.702 | 1002.24 ± 0.33
278.68 K, m1 = 0.8002 | 1002.58 ± 0.33

CC(N)=O [ethanamide] + O
Conditions | mass density [kg/m3]
275.66 K, m1 = 0.102 | 1000.47 ± 0.32
275.66 K, m1 = 0.2015 | 1000.96 ± 0.32
275.66 K, m1 = 0.2995 | 1001.42 ± 0.32
275.66 K, m1 = 0.4032 | 1001.9 ± 0.32
275.66 K, m1 = 0.4848 | 1002.29 ± 0.32
275.66 K, m1 = 0.5945 | 1002.81 ± 0.32
275.66 K, m1 = 0.6875 | 1003.24 ± 0.32
275.66 K, m1 = 0.7747 | 1003.64 ± 0.32
276.14 K, m1 = 0.09682 | 1000.43 ± 0.32
276.14 K, m1 = 0.2023 | 1000.93 ± 0.32
276.14 K, m1 = 0.3049 | 1001.42 ± 0.32
276.14 K, m1 = 0.4077 | 1001.91 ± 0.32
276.14 K, m1 = 0.5003 | 1002.35 ± 0.32
276.14 K, m1 = 0.6016 | 1002.82 ± 0.32
276.14 K, m1 = 0.7037 | 1003.3 ± 0.32
276.14 K, m1 = 0.8092 | 1003.79 ± 0.32
276.61 K, m1 = 0.1016 | 1000.37 ± 0.32
276.61 K, m1 = 0.1972 | 1000.9 ± 0.32
276.61 K, m1 = 0.299 | 1001.39 ± 0.32
276.61 K, m1 = 0.4078 | 1001.9 ± 0.32
276.61 K, m1 = 0.4957 | 1002.32 ± 0.32
276.61 K, m1 = 0.6048 | 1002.83 ± 0.32
276.61 K, m1 = 0.6858 | 1003.21 ± 0.32
276.61 K, m1 = 0.8092 | 1003.78 ± 0.32
277.15 K, m1 = 0.09682 | 1000.43 ± 0.32
277.15 K, m1 = 0.2023 | 1000.93 ± 0.32
277.15 K, m1 = 0.3049 | 1001.41 ± 0.32
277.15 K, m1 = 0.4077 | 1001.88 ± 0.32
277.15 K, m1 = 0.5003 | 1002.32 ± 0.32
277.15 K, m1 = 0.6016 | 1002.8 ± 0.32
277.15 K, m1 = 0.7037 | 1003.28 ± 0.32
277.15 K, m1 = 0.8092 | 1003.77 ± 0.32
277.61 K, m1 = 0.1016 | 1000.45 ± 0.32
277.61 K, m1 = 0.1972 | 1000.91 ± 0.32
277.61 K, m1 = 0.299 | 1001.38 ± 0.32
277.61 K, m1 = 0.4078 | 1001.89 ± 0.32
277.61 K, m1 = 0.4957 | 1002.29 ± 0.32
277.61 K, m1 = 0.6048 | 1002.79 ± 0.32
277.61 K, m1 = 0.6858 | 1003.16 ± 0.32
277.61 K, m1 = 0.8092 | 1003.73 ± 0.32
278.12 K, m1 = 0.1016 | 1000.43 ± 0.32
278.12 K, m1 = 0.1972 | 1000.88 ± 0.32
278.12 K, m1 = 0.299 | 1001.35 ± 0.32
278.12 K, m1 = 0.4078 | 1001.85 ± 0.32
278.12 K, m1 = 0.4957 | 1002.27 ± 0.32
278.12 K, m1 = 0.6048 | 1002.77 ± 0.32
278.12 K, m1 = 0.6858 | 1003.15 ± 0.32
278.12 K, m1 = 0.8092 | 1003.73 ± 0.32
278.68 K, m1 = 0.102 | 1000.43 ± 0.32
278.68 K, m1 = 0.2015 | 1000.9 ± 0.32
278.68 K, m1 = 0.2995 | 1001.36 ± 0.32
278.68 K, m1 = 0.4032 | 1001.83 ± 0.32
278.68 K, m1 = 0.4848 | 1002.21 ± 0.32
278.68 K, m1 = 0.5945 | 1002.7 ± 0.32
278.68 K, m1 = 0.6875 | 1003.12 ± 0.32
278.68 K, m1 = 0.7747 | 1003.51 ± 0.32

CCCC(N)=O [butanamide] + O
Conditions | mass density [kg/m3]
275.66 K, m1 = 0.1003 | 1000.06 ± 0.32
275.66 K, m1 = 0.1971 | 1000.2 ± 0.32
275.66 K, m1 = 0.301 | 1000.37 ± 0.32
275.66 K, m1 = 0.4013 | 1000.56 ± 0.32
275.66 K, m1 = 0.4955 | 1000.75 ± 0.32
275.66 K, m1 = 0.6013 | 1000.97 ± 0.32
275.66 K, m1 = 0.695 | 1001.2 ± 0.33
275.66 K, m1 = 0.8012 | 1001.46 ± 0.33
276.14 K, m1 = 0.1021 | 1000.06 ± 0.32
276.14 K, m1 = 0.1961 | 1000.2 ± 0.32
276.14 K, m1 = 0.2967 | 1000.37 ± 0.32
276.14 K, m1 = 0.4955 | 1000.75 ± 0.32
276.14 K, m1 = 0.6013 | 1000.96 ± 0.32
276.14 K, m1 = 0.6982 | 1001.18 ± 0.33
276.14 K, m1 = 0.8012 | 1001.42 ± 0.33
276.14 K, m1 = 0.9855 | 1001.87 ± 0.33
276.61 K, m1 = 0.1009 | 1000.05 ± 0.32
276.61 K, m1 = 0.1973 | 1000.18 ± 0.32
276.61 K, m1 = 0.2967 | 1000.33 ± 0.32
276.61 K, m1 = 0.4013 | 1000.51 ± 0.32
276.61 K, m1 = 0.5977 | 1000.89 ± 0.32
276.61 K, m1 = 0.7003 | 1001.11 ± 0.33
276.61 K, m1 = 0.8012 | 1001.35 ± 0.33
276.61 K, m1 = 0.9976 | 1001.83 ± 0.33
277.15 K, m1 = 0.1021 | 1000.09 ± 0.32
277.15 K, m1 = 0.1961 | 1000.21 ± 0.32
277.15 K, m1 = 0.2967 | 1000.35 ± 0.32
277.15 K, m1 = 0.4955 | 1000.69 ± 0.32
277.15 K, m1 = 0.6013 | 1000.9 ± 0.32
277.15 K, m1 = 0.6982 | 1001.13 ± 0.33
277.15 K, m1 = 0.8012 | 1001.4 ± 0.33
277.15 K, m1 = 0.9855 | 1001.94 ± 0.33
277.61 K, m1 = 0.1009 | 1000.08 ± 0.32
277.61 K, m1 = 0.1973 | 1000.21 ± 0.32
277.61 K, m1 = 0.2967 | 1000.36 ± 0.32
277.61 K, m1 = 0.4013 | 1000.53 ± 0.32
277.61 K, m1 = 0.5977 | 1000.89 ± 0.32
277.61 K, m1 = 0.7003 | 1001.1 ± 0.33
277.61 K, m1 = 0.8024 | 1001.32 ± 0.33
277.61 K, m1 = 0.9976 | 1001.77 ± 0.33
278.12 K, m1 = 0.1076 | 1000.07 ± 0.32
278.12 K, m1 = 0.1971 | 1000.19 ± 0.32
278.12 K, m1 = 0.3283 | 1000.38 ± 0.32
278.12 K, m1 = 0.4191 | 1000.51 ± 0.32
278.12 K, m1 = 0.5074 | 1000.65 ± 0.32
278.12 K, m1 = 0.6233 | 1000.85 ± 0.32
278.12 K, m1 = 0.7379 | 1001.04 ± 0.33
278.12 K, m1 = 0.8761 | 1001.28 ± 0.33
278.68 K, m1 = 0.1003 | 1000.05 ± 0.32
278.68 K, m1 = 0.1971 | 1000.17 ± 0.32
278.68 K, m1 = 0.301 | 1000.31 ± 0.32
278.68 K, m1 = 0.4013 | 1000.46 ± 0.32
278.68 K, m1 = 0.4955 | 1000.62 ± 0.32
278.68 K, m1 = 0.6013 | 1000.81 ± 0.32
278.68 K, m1 = 0.695 | 1001 ± 0.33
278.68 K, m1 = 0.8012 | 1001.23 ± 0.33
